In patent publication US4777167A, “Pharmaceutically useful substituted thiacycloalkeno [3,2-b]pyridines, compositions and method of use” (Ortho Pharmaceutical Corporation, priority 1987, dated 1988):

Tests used:
Aorta Muscle = assay: Inhibition of aorta muscle contraction; type: cell-based; conditions: Table II; for inhibition at 0.1 µM: concentration 0.1 μM
trachealis muscle = assay: Inhibition of calcium dependent smooth muscle contraction (KCl-challenged trachea); type: cell-based, dog; conditions: Canis lupus familiaris, Table II; for inhibition at 2 µM: concentration 2.0 μM; for inhibition at 0.1 µM: concentration 0.1 μM
Description: The test for inhibition of calcium dependent smooth muscle contraction is determined according to the following procedure:
Trachea from dogs sacrificed by excess KCl injection are stored overnight at 4° C. in oxygenated Krebs-Henseleit buffer. Tracheal rings, one cartilage segment wide (5-10 mm), are cut starting from the bronchial end. After cutting the cartilage, the trachealis muscle tissue is suspended in oxygenated Krebs-Henseleit buffer at 37° C. in a 25 ml tissue bath. After a 60 minutes equilibration period, the tissues are challenged with 10 μM carbachol. After 5 minutes the tissues are rinsed and allowed to rest 50 minutes. The tissues are then challenged with 50 mM KCl and, after 30 minutes, the contractions are quantitated. The tissues are then rinsed and reequilibrated for 50 minutes. Test compounds are then added for 10 minutes, and the tissue is rechallenged with 50 mMKcl. After 30 minutes, the contraction is recorded and used to determine the % inhibition of control.
The percent inhibition of smooth muscle contraction is calculated from response data before and after drug treatment. [formula] A rating is assigned to the compound depending upon the percent inhibition obtained.

calcium channels = target: T1, calcium channels (Oryctolagus cuniculus, UniProt P15381); assay: Inhibition of nitrendipine binding (3H-nitrendipine displacement, rabbit heart membranes); design: species or system rabbit (New Zealand white); conditions: Table II, 90 min, 4° C.
T1 construct: from tissue; host or cells: heart of female New Zealand white rabbits, membrane fraction (42,000×g pellet)
Description: (1) Inhibition of nitrendipine binding to calcium channels.
The assay for inhibition of nitrendipine binding follows the following procedure:
Female, New Zealand white rabbits (1-2 kg) are sacrificed by cervical dislocation, and the heart is immediately removed, cleaned, and chopped into small pieces. The tissue is homogenized in 5× volume of 0.05M Hepes buffer, pH 7.4. The homogenate is centrifuged at 4000×g for 10 minutes; the supernatant is recentrifuged at 42,000×g for 90 minutes. The resulting membrane pellet is resuspended (0.7 ml/g weight) in 0.05M Hepes, pH 7.4 and stored at -70° C. until used. Each tube of the binding assay contains ^3 H- nitrendipine (0.05-0.50 nM), buffer, membranes (0.10 ml), and test compound in a total volume of 1.0 ml. After 90 minutes at 4° C., the bound nitrendipine is separated from the unbound by filtration on Whatman GF/C fibers. After rinsing, the filters are dried and counted in a liquid scintillation counter.
Non-specific binding of ^3 H-nitrendipine (that amount bound in the presence of excess unlabelled nitrendipine) is subtracted from the total bound to obtain specifically bound radiolabeled nitrendipine. The amount of specifically bound nitrendipine in the presence of a test compound is compared to that amount bound in the absence of a compound. A percent displacement (or inhibition) can then be obtained.

[1] = read-out: Inhibition Trachea Muscle Contraction % Inhibition

T1 sequence (P15381 whole entry, other chains not shown): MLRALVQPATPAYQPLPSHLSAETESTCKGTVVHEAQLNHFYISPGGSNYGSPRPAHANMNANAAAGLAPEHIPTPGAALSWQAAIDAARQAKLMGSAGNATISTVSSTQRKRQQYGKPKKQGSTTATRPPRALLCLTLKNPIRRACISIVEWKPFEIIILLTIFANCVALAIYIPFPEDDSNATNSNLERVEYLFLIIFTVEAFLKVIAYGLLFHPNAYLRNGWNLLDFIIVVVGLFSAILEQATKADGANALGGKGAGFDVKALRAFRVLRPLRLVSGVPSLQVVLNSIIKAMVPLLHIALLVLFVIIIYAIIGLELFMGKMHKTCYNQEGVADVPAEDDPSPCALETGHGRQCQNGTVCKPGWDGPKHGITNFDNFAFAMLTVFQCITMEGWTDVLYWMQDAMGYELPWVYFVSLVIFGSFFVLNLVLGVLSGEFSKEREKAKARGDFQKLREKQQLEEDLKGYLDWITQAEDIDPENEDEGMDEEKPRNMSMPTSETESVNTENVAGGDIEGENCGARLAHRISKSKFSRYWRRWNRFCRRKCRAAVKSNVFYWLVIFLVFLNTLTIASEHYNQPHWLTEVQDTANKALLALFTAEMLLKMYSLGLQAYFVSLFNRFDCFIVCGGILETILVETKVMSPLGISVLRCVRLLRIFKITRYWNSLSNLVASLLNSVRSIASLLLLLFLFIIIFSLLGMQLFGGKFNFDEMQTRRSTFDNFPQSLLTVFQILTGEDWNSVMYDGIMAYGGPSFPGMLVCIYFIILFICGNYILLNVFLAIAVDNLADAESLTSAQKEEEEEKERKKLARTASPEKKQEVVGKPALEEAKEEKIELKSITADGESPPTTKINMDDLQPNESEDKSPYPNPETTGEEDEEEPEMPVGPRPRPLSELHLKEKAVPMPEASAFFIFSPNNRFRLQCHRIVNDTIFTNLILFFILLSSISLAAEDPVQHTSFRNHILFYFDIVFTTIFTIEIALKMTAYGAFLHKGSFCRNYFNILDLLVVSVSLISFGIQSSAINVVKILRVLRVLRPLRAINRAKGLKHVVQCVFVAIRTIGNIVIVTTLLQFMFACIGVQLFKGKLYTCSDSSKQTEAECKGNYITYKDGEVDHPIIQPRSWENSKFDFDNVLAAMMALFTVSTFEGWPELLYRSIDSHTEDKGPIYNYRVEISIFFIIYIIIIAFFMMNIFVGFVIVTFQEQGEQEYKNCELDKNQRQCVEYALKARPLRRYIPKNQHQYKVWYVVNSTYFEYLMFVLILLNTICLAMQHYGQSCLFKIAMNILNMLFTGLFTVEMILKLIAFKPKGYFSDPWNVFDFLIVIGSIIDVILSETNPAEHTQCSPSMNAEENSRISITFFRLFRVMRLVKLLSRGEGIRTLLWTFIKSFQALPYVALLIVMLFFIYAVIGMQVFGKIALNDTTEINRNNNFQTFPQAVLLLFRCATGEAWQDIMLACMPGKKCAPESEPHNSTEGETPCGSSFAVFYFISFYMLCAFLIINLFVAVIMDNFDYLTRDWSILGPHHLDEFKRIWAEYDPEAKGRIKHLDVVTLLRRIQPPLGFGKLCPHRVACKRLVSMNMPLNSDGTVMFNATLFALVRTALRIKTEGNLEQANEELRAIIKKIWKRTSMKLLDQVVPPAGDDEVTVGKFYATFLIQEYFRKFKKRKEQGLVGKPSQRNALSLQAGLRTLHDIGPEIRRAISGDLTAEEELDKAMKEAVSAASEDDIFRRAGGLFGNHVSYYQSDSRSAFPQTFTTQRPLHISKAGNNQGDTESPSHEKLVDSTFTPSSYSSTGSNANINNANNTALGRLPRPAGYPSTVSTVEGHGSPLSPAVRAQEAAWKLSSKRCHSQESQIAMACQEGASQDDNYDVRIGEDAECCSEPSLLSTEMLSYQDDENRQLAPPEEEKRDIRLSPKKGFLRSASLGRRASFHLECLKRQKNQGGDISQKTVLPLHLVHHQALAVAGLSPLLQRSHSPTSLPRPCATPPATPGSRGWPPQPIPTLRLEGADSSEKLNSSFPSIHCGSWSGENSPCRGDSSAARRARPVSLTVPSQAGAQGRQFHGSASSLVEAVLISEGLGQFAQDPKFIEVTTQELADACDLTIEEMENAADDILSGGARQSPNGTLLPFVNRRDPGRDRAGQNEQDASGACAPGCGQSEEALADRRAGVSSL
T1 sequence (P13806 27-960 partner limits assumed, other chains not shown): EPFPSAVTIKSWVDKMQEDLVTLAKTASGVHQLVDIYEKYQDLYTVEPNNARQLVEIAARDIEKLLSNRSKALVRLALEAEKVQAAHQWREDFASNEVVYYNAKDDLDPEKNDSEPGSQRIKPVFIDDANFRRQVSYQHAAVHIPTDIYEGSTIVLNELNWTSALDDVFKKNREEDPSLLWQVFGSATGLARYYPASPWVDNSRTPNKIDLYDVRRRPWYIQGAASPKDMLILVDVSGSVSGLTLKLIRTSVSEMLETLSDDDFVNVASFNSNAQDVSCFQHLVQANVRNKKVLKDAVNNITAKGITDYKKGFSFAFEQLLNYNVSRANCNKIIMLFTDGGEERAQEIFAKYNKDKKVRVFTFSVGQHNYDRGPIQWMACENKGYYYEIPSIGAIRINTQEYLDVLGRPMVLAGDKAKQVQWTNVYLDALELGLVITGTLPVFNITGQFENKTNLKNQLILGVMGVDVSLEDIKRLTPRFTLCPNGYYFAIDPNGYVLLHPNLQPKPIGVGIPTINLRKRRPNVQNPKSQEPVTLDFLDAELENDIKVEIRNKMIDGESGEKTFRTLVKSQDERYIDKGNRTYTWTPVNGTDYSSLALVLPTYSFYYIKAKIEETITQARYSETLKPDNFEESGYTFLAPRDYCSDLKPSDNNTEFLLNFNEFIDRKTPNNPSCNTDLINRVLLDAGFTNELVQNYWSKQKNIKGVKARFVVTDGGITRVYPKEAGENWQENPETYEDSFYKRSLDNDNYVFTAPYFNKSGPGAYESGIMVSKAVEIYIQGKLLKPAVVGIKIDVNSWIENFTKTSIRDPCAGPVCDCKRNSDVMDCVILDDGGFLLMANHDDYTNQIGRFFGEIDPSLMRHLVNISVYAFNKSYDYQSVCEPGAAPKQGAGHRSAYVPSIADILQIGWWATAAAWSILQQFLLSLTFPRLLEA
T1 sequence (P13806 961-1106 partner limits assumed, other chains not shown): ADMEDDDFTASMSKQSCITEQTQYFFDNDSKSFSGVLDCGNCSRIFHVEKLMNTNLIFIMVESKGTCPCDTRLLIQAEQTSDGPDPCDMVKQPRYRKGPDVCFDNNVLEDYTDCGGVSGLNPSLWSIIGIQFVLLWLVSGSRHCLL

Compound	IC50 (calcium channels)	inhibition at 3 µM (Aorta Muscle; concentration 3.0 μM)	inhibition at 2 µM (trachealis muscle; [1])	inhibition at 0.1 µM (Aorta Muscle)	inhibition at 1 µM (trachealis muscle; concentration 1.0 μM)	inhibition at 0.2 µM (trachealis muscle; concentration 0.2 μM, read-out: Inhibition Trachea Muscle Contraction % Inhibition)	inhibition at 0.1 µM (trachealis muscle; [1])	inhibition at 0.01 µM (Aorta Muscle; concentration 0.01 μM)
CC1=C(C(=O)OCCO)C(c2cccc([N+](=O)[O-])c2)C2=C(CCCCS2(=O)=O)N1 (stereo not drawn) [4 3-NO2C6 H4 CH2 CH2 OH]	2400 nM	41%	23%	–	–	–	–	–
CC1=C(C(=O)OC2CCN(Cc3ccccc3)CC2)C(c2cccc([N+](=O)[O-])c2)C2=C(CCCCS2(=O)=O)N1 (stereo not drawn) [4 3-NO2C6 H4 drawing 7]	860 nM	–	17%	12%	–	–	–	–
CC1=C(C(=O)OCCN2CCc3ccccc32)C(c2cccc([N+](=O)[O-])c2)C2=C(CCCCS2(=O)=O)N1 (stereo not drawn) [4 3-NO2C6 H4 drawing 9]	100 nM	–	–	80%	56%	–	–	–
CC1=C(C(=O)OCCN2CCc3ccccc3C2)C(c2cccc([N+](=O)[O-])c2)C2=C(CCCCS2(=O)=O)N1 (stereo not drawn) [4 3-NO2C6 H4 drawing 11]	200 nM	–	–	53%	–	45%	–	–
CC1=C(C(=O)OCCN(C)Cc2ccccc2)C(c2ccccc2OC(F)F)C2=C(CCCCCS2(=O)=O)N1 (stereo not drawn) [5 2-OCHF2C6 H4, N-Benzyl-N-methylaminoethyl 10-(2-difluoromethoxyphenyl)-3,4,5,6,7,10-hexahydro-8-methyl-1,1-dioxothiacycloocteno[3,2-b]pyridine-9-carboxylate]	95 nM	–	–	–	–	–	76%	80%
CC1=C(C(=O)OCCc2ccccn2)C(c2cccc([N+](=O)[O-])c2)C2=C(CCCCCS2(=O)=O)N1 (stereo not drawn) [5 3-NO2C6 H4 drawing 10]	65 nM	–	–	48%	–	–	53%	–
CC1=C(C(=O)OCCN(C)Cc2ccccc2)C(c2cccc([N+](=O)[O-])c2)C2=C(CCCCCS2(=O)=O)N1 (stereo not drawn) [5 3-NO2C6 H4, N-Benzyl-N-methylaminoethyl 3,4,5,6,7,10-hexahydro-8-methyl-10-(3-nitrophenyl)-1,1-dioxo-2H-thiacycloocteno[3,2-b]pyridine-9-carboxylate]	45 nM	–	–	67%	–	–	43%	–

Continued, in another order:

IC50 (calcium channels)	Compound	inhibition at 3 µM (Aorta Muscle; concentration 3.0 μM)	inhibition at 2 µM (trachealis muscle; [1])	inhibition at 0.1 µM (Aorta Muscle)	inhibition at 1 µM (trachealis muscle; concentration 1.0 μM)	inhibition at 0.2 µM (trachealis muscle; concentration 0.2 μM, read-out: Inhibition Trachea Muscle Contraction % Inhibition)	inhibition at 0.1 µM (trachealis muscle; [1])	inhibition at 0.01 µM (Aorta Muscle; concentration 0.01 μM)
75 nM	CC1=C(C(=O)OCCN(C)Cc2ccccc2)C(c2cccc(Cl)c2Cl)C2=C(CCCCCS2(=O)=O)N1 (stereo not drawn) [5 2,3-Cl2C6 H3]	–	–	58%	–	–	26%	–
200 nM	CC1=C(C(=O)OCCN(C)Cc2ccccc2)C(c2cccc(C(F)(F)F)c2Cl)C2=C(CCCCCS2(=O)=O)N1 (stereo not drawn) [5 2-Cl,3-CF3C6 H3, N-Benzyl-N-methylaminoethyl 10-(2-chloro-3-trifluoromethylphenyl)-3,4,5,6,7,10-hexahydro-8-methyl-1,1-dioxothiacycloocteno[3,2-b]pyridine-9-carboxylate]	–	–	78%	–	–	57%	–
18 nM	CC1=C(C(=O)OCCN(C)c2ccccc2)C(c2c(F)c(F)c(F)c(F)c2F)C2=C(CCCCCS2(=O)=O)N1 (stereo not drawn) [5 C6 F5 CH2 CH2 NCH3 C6 H5, N-Methyl-N-phenylaminoethyl 10-(2,3,4,5,6-pentafluorophenyl)-3,4,5,6,7,10-hexahydro-8-methyl-1,1-dioxothiacycloocteno[3,2-b]pyridine-9-carboxylate]	–	–	63%	–	–	47%	–
87 nM	CC1=C(C(=O)OCCN(C)Cc2ccccc2)C(c2c(F)c(F)c(F)c(F)c2F)C2=C(CCCCCS2(=O)=O)N1 (stereo not drawn) [5 C6 F5, N-Benzyl-N-methylaminoethyl 10-(2,3,4,5,6-pentafluorophenyl)-3,4,5,6,7,10-hexahydro-8-methyl-1,1-dioxo-2H-thiacycloocteno[3,2-b]pyridine-9-carboxylate]	–	–	70%	–	–	50%	–
470 nM	CC1=C(C(=O)OCCN(C)Cc2ccccc2)C(c2cccc(C(F)(F)F)c2Cl)C2=C(CCCCCCS2(=O)=O)N1 (stereo not drawn) [6 2-Cl,3-CF3C6 H3, N-Benzyl-N-methylaminoethyl 19-(2-chloro-3-trifluoromethylphenyl)-2,3,4,5,6,7,8,11-octahydro-9-methyl-1,1-dioxothiacyclononeno[3,2-b]pyridine-10-carboxylate]	–	46%	30%	–	–	–	–
